In patent US9517229B2, “Treatment of breast cancer” (MEDIVATION PROSTATE THERAPEUTICS, INC., priority 2011, dated 2016):

Columns and labels:
[1] = tested on: MDA-MB-453 cells; assay: MTS in vitro proliferation assay, DHT-induced proliferation of MDA-MB-453 cells; assay type: cell-based; settings: 10 μM RD162′, 10 nM DHT, FIG. 7A
[2] = tested on: androgen-dependent luciferase reporter in MDA-kb2 cells; assay: Luciferase assay in MDA-kb2 cells with androgen-dependent luciferase reporter; assay type: cell-based; settings: FIG. 7B
[3] = tested on: MCF7-TGL cells; assay: Estrogen stimulated MCF7-TGL orthotopic tumors in ovariectomized nude mice; assay type: in vivo; settings: for BrdU staining of tumor sections, P vs E2 group: BrdU two hours prior to sacrifice, ANOVA with Bonferroni correction, FIG. 11D
Experimental: MCF7-TGL cells stably expressing luciferase were implanted orthotopically in the mammary gland of ovariectomized female nude mice. […] The beginning of treatment is indicated by an arrow. Tumor burden was measured by whole body luminescence. […] Mice were matched on day −3 and treatment began on day 0. * indicates P<0.05, ANOVA with Bonferroni's multiple comparison test correction (FIG. 11A). The total luminescent flux is shown for all individual mice at the day of matching (Day −3) and at the final imaging day (Day 11). * indicates P<0.05, ANOVA with Bonferroni's multiple comparison test correction (FIG. 11B). Images of luminescent signal in the two treatment groups at the day of matching ([…]) and the final day of imaging (day 11) is shown (FIG. 11C). Mice were injected with BrdU two hours prior to sacrifice.

[4] = tested on: MCF7 cells; assay: MCF7 luciferase tumors in mammary fat pad of ovariectomized nod/scid mice with DHT pellet; assay type: in vivo; settings: chow containing 50 mg/kg RD162′ from day 22, FIGS. 5A-D
[5] = tested on: MCF7 cells; assay: MTT in vitro proliferation assay, DHT-mediated growth in MCF7 cells; assay type: cell-based; settings: 10 μM RD162′ with 10 nM DHT; MTT at various time points; FIG. 1
[6] = tested on: Hs578T cells; assay: MTS viable cell assay in Hs578T TNBC cell line; assay type: cell-based; settings: RD162′ 10 μM, DHT 10 nM, 9 days, FIG. 8
Experimental: Viable cells were assayed by MTS assay. Averages of the triplicate data points are shown with standard deviation. ***p<0.001 (two-tail t-test).

[7] = tested on: MCF7 cells; assay: MTT assay, estradiol-mediated growth in MCF7 cells; assay type: cell-based; settings: 10 μM RD162′ with 10 nM estradiol (E2); MTT at various time points; FIG. 3
Experimental: MCF7 cells were plated in phenol red-free medium containing charcoal stripped serum. […] An MTT assay was performed at various time points. The values were normalized to an untreated plate read 24 hours after plating to account for differences in cell density.

[8] = tested on: MDA468 cells; assay: MTT assay in triple negative breast cancer cell line MDA468; assay type: cell-based; settings: 10 μM RD162′, FIG. 6C
[9] = tested on: MDA-MB-453 tumors; assay: Androgen stimulated MDA-MB-453 orthotopic tumors in NOD-SCID-IL2Rgc-/- mice (Example 10); assay type: in vivo
[10] = tested on: MDA-MB-453 cells; assay: MDA-MB-453 xenograft in mammary fat pad of NOD-SCID-IL2Rgc-/- mice with DHT pellet (Example 7); assay type: in vivo
[11] = tested on: BCK4 cells; assay: Proliferation assay, DHT-mediated growth in BCK4 cells; assay type: cell-based; settings: RD162′ and DHT; FIG. 2
[12] = tested on: BT20 cells; assay: MTT assay in triple negative breast cancer cell line BT20; assay type: cell-based; settings: 10 μM RD162′, FIG. 6B

| SMILES | proliferation of MDA-MB-453 cells induced by DHT [1] | DHT-induced signal in luciferase assay (printed as proliferation) [2] | BrdU staining of tumor sections, P vs E2 group [3] | inhibition of estrogen stimulated tumor growth (whole body luminescence) ([3]; chow containing 50 mg/kg RD162′ vs tamoxifen pellet SQ, E2 pellet, FIGS. 11A-C) | DHT-mediated tumor growth in vivo (caliper and IVIS imaging) [4] | DHT-mediated growth of MCF7 cells [5] | growth of Hs578T cells (viable cells) [6] | estradiol-mediated growth of MCF7 cells [7] | cell growth of MDA468 [8] | cell viability of MDA468 [8] | androgen stimulated growth of MDA-MB-453 tumors ([9]; RD162′ 10 mg/kg daily oral gavage from 100 mm^3, DHT pellet, FIGS. 10A-D) | tumor volume, DHT vs DHT+RD162′ ([9]; RD162′ 25 mg/kg by oral gavage started when tumors reached 400 mm^3, weekly caliper, FIG. 10A) | DHT induced tumor growth (tumor weight at necropsy) ([10]; 10 mg/kg/d and 25 mg/kg/d RD162′ by oral gavage, both doses, FIG. 7E) | tumor growth induced by DHT (caliper tumor size) ([10]; 10 mg/kg/d or 25 mg/kg/d RD162′ by oral gavage, either dose, FIG. 7D) | DHT-mediated growth of BCK4 cells [11] | cell growth of BT20 [12] | cell viability of BT20 [12] |
| --- | --- | --- | --- | --- | --- | --- | --- | --- | --- | --- | --- | --- | --- | --- | --- | --- | --- |
| CNC(=O)c1ccc(N2C(=S)N(c3ccc(C#N)c(C(F)(F)F)c3)C(=O)C2(C)C)cc1F [RD162′, enzalutamide] | inhibits proliferation | inhibits proliferation induced by DHT in a dose dependent manner | < 0.001 | as Effective as Tamoxifen | inhibits DHT-mediated tumor growth | blocks DHT-mediated growth | Inhibits the Growth | blocks estradiol-mediated growth | inhibits cell growth | decreases cell viability | Inhibits Androgen Stimulated Growth | no significant differences at any time point | significantly inhibited DHT induced tumor growth | inhibited tumor growth | blocks DHT-mediated growth | inhibits cell growth | decreases cell viability |
| C[C@]12CCC(=O)C[C@@H]1CC[C@@H]1[C@@H]2CC[C@]2(C)[C@@H](O)CC[C@@H]12 [DHT, dihydrotestosterone, reference compound] |  |  |  |  |  |  | does not increase the growth |  |  |  |  |  |  |  |  |  |  |
| CC/C(=C(\c1ccccc1)c1ccc(OCCN(C)C)cc1)c1ccccc1 [Tamoxifen, tamoxifen, reference compound] |  |  | < 0.01 |  |  |  |  |  |  |  |  |  |  |  |  |  |  |
